Test results reported in ChEMBL document CHEMBL1132648, “Butenolide endothelin antagonists with improved aqueous solubility” (J Med Chem, 1999).

Conditions: buffer, pH 7.4

| SMILES | Aqueous solubility [ng/mL] |
| --- | --- |
| COc1ccc(C(=O)/C(Cc2cc(OC)c(OC)c(OC)c2)=C(\C(=O)[O-])c2ccc3c(c2)OCO3)cc1.[Na+] [PD-156707 SODIUM] | > 125 |
| COc1ccc(C2(O)OC(=O)C(c3ccc4c(c3)OCO4)=C2Cc2cc(OC)c(OC)c(OC)c2)cc1 (stereo not drawn) [PD-156707] | < 0.01 |
| COc1ccc(C(=O)/C(Cc2cc(OC)c(OC)c(OCCCC(=O)O)c2)=C(\C(=O)[O-])c2ccc3c(c2)OCO3)cc1.[Na+] | > 250 |
